Here are results for two compounds from US20080014162A1, “Method to treat skin in need of a calmative using at least one C-Glycoside derivative” (L'OREAL, priority 2006, published 2008).

Data set [1] has as its system interleukin-8 secreted by normal human epidermal keratinocytes (NHEK) after stimulation with retinol. As to the kind of experiment: Assay of IL8 + stimulation with retinol in normal human epidermal keratinocytes (anti-irritant effect). The conditions noted are these: for % blank (+retinol): IL8 as % of blank (+retinol); for IL8: 24 hours at 37° C.
Method: This test allows evaluation of the anti-irritant potential of various molecules, on a human keratinocyte (NHEK) cell line. In this test, an irritant situation is mimicked by exacerbating the production of IL-8 by the NHEKs by addition of retinol to the culture medium, Il-8 being involved in the initiation of keratinocyte irritation. Next, the anti-irritant effect of a C-glycoside compound is measured by means of its inhibitory action with respect to this exacerbated production.
Normal human epidermal keratinocytes are incubated in the presence of 10^−6 M retinol for 24 hours at 37° C. In response to the retinol, the production of the chemotactic agent interleukine 8 (IL-8) is measured via enzymatic assay using an assay kit (Elisa D8050) sold by the company R&D. The absorbance values are measured with a microplate reader (MRX/Dynatech) according to the procedures supplied with the assay kit.
A control test is also performed with dexamethasone, which is a reference calmative.
The results are expressed as a percentage of the control values after subtracting the background noise and as a percentage of inhibition of these values obtained in the presence of the compounds.
Data set [2] relates to interleukin-8 secreted by normal human epidermal keratinocytes (NHEK). As to the kind of experiment: Assay of IL8 without stimulation in normal human epidermal keratinocytes. Type of data set: cell-based. The conditions noted are these: concentration 2%. An excerpt:
Dermatol., 102: 915-922 (1994)].

The mark [3] stands for this setting: NHEK + 10^−6 M retinol, 24 hours, concentration 2%.

Consider `CC(O)C[C@@H]1OC[C@@H](O)[C@H](O)[C@H]1O` (stereo partly drawn) [C-β-D-xylopyranoside-2-hydroxypropane], for which, in data set [1] (setting [3]), the “% blank (+retinol)” value is given as 60% and the “% viability” value is 104%. Also, the “IL8” value in data set [1] (NHEK + 10^−6 M retinol, concentration 2%) was 124.4 pg/mL. In addition, the “effect on the irritant reaction of retinol” value in data set [1] (conclusion in words from the IL8 assay in NHEK) is given as “reduces the irritant reaction of retinol”. Moreover, the “% blank” value in data set [2] (IL8 as % of blank) worked out at 53%. In data set [2], the “% viability” value turned out to be 97% and the “IL8” value worked out at 145.2 pg/mL.

On to `C[C@@H]1C[C@H]2[C@@H]3CCC4=CC(=O)C=C[C@]4(C)[C@@]3(F)[C@@H](O)C[C@]2(C)[C@@]1(O)C(=O)CO` [Dexamethasone, reference compound], for which the “% blank (+retinol)” value in data set [1] (NHEK + 10^−6 M retinol, 24 hours, concentration 10^−7M) was determined as 57%. Moreover, the “IL8” value in data set [1] (NHEK + 10^−6 M retinol, concentration 10^−7M) was determined as 117.7 pg/mL.
